Each structure is given as a SMILES string. Values after ≈ are worked out from the molar mass of the structure shown. Active and inactive are the calls of the source.

The results in this text go back to ChEMBL document CHEMBL2424569, “Synthesis of halogenated derivatives of thymol and their antimicrobial activities” (2013).

What all share (assay type): functional
In assay [1] the test system is Candida albicans. Put plainly: Antifungal activity against Candida albicans AI by two-fold serial dilution assay.
Assay [2] has as its system Candida albicans. The assay is described as follows: Antifungal activity against Candida albicans MTCC by two-fold serial dilution assay.
In assay [3] the test system is Candida albicans. Put plainly: Antifungal activity against Candida albicans CN by two-fold serial dilution assay.
Assay [4] concerns Candida albicans. The assay is described as follows: Antifungal activity against Candida albicans MTCC at MIC after 7 to 10 days by disc diffusion assay. On the technique in general: A growth-free zone around the sample is the usual read-out of agar diffusion tests.
In assay [5] the test system is Candida albicans. The assay is described as follows: Antifungal activity against Candida albicans CN at MIC after 7 to 10 days by disc diffusion assay.
Assay [6] relates to Candida albicans. Put plainly: Antifungal activity against Candida albicans AI at MIC after 7 to 10 days by disc diffusion assay.
The subject of assay [7] is Klebsiella pneumoniae. The assay is described as follows: Antibacterial activity against Klebsiella pneumoniae at MIC after 48 hrs by disc diffusion assay.
Assay [8] deals with Staphylococcus aureus. Put plainly: Antibacterial activity against Staphylococcus aureus at MIC after 48 hrs by disc diffusion assay.
The test system of assay [9] is Staphylococcus epidermidis. The assay is described as follows: Antibacterial activity against Staphylococcus epidermidis by two-fold serial dilution assay.
The subject of assay [10] is Escherichia coli. Put plainly: Antibacterial activity against Escherichia coli by two-fold serial dilution assay.
Assay [11] has as its system Streptococcus mutans. Put plainly: Antibacterial activity against Streptococcus mutans at MIC after 48 hrs by disc diffusion assay.
In assay [12] the test system is Staphylococcus epidermidis. Put plainly: Antibacterial activity against Staphylococcus epidermidis at MIC after 48 hrs by disc diffusion assay.
Assay [13] relates to Klebsiella aerogenes. The assay is described as follows: Antibacterial activity against Enterobacter aerogenes by two-fold serial dilution assay.
Assay [14] relates to Enterococcus faecalis. Put plainly: Antibacterial activity against Enterococcus faecalis at MIC after 48 hrs by disc diffusion assay.
Assay [15] deals with Enterococcus faecalis. The assay is described as follows: Antibacterial activity against Enterococcus faecalis by two-fold serial dilution assay.
Assay [16] relates to Klebsiella pneumoniae. The assay is described as follows: Antibacterial activity against Klebsiella pneumoniae by two-fold serial dilution assay.
Assay [17] has as its system Escherichia coli. The assay is described as follows: Antibacterial activity against Escherichia coli at MIC after 48 hrs by disc diffusion assay.
In assay [18] the test system is Klebsiella aerogenes. Put plainly: Antibacterial activity against Enterobacter aerogenes at MIC after 48 hrs by disc diffusion assay.
The test system of assay [19] is Staphylococcus aureus. Put plainly: Antibacterial activity against Staphylococcus aureus by two-fold serial dilution assay.
Assay [20] concerns Streptococcus mutans. Put plainly: Antibacterial activity against Streptococcus mutans by two-fold serial dilution assay.

As a reminder, the MIC is the smallest concentration in the dilution series that meets the test's criterion for growth inhibition. High values mean a less susceptible organism, low ones a more susceptible organism. Turning to `C[C@@H]1[C@H](O)[C@@H](C)/C=C/C=C/C=C/C=C/C=C/C=C/C=C/[C@H](O[C@@H]2O[C@H](C)[C@@H](O)[C@H](N)[C@@H]2O)C[C@@H]2O[C@](O)(C[C@@H](O)C[C@@H](O)[C@H](O)CC[C@@H](O)C[C@@H](O)CC(=O)O[C@H]1C)C[C@H](O)[C@H]2C(=O)O` [AMPHOTERICIN B], the MIC in assay [1], in assay [2] and in assay [3] was 100 µg/mL (≈ 108 µM) in each case. Also, the figures for the “inhibition zone (IZ)” value in assay [4], in [5] and in assay [6] were 20 mm, 10 mm and 30 mm, respectively.
With `COc1cc(C)ccc1C(C)C`, the result in [7], in assay [8], in [9], in assay [10], in [11] and in [1] was inactive. Besides, the outcome in assay [2], in assay [3], in assay [12], in assay [13], in assay [14] and in assay [4] was inactive. Besides, the outcome in assay [15], in assay [5], in assay [16], in assay [17], in assay [18] and in [19] was inactive. Besides, the outcome in assay [6] and in assay [20] was inactive.
Regarding `COc1cc(C)c(I)cc1C(C)C`, the outcome in assay [7], in [8], in [9], in [10], in assay [11] and in assay [1] was inactive. The outcome in assay [2], in [3], in assay [12], in assay [13], in [14] and in assay [4] was inactive. Also, the outcome in assay [15], in assay [5], in assay [16], in assay [17], in assay [18] and in assay [19] was inactive. Also, the result in assay [6] and in [20] was inactive.
For the compound `Cc1cc(O)c(C(C)C)cc1Cl` [CHLOROTHYMOL], the “inhibition zone (IZ)” value in assay [8] came to 5 mm; in assay [12] it was 6 mm; in assay [4], 20 mm; in [5] it was 10 mm; in assay [6], 30 mm. The MIC worked out at 25 µg/mL (≈ 135 µM) in assay [9]; 100 µg/mL (≈ 542 µM) in assay [1]; 100 µg/mL (≈ 542 µM) in assay [2]; 100 µg/mL (≈ 542 µM) in [3]; 12.5 µg/mL (≈ 67.7 µM) in assay [19].
As for `Cc1ccc(C(C)C)c(O)c1` [THYMOL], the “inhibition zone (IZ)” value in [7] is reported as 6 mm; in assay [8], 12 mm; in [11], 11 mm; in [12] it was 18 mm; in assay [14] it was 10 mm; in assay [4], 8 mm. For the same compound, the “inhibition zone (IZ)” value in assay [5] is recorded as 6 mm; in assay [17] it was 3 mm; in assay [18], 8 mm; in assay [6] it was 5 mm. In addition, the minimal inhibitory concentration (MIC) in assay [9] was found to be 32.2 µg/mL (≈ 215 µM); in assay [10] it was 100 µg/mL (≈ 666 µM); in [1], 100 µg/mL (≈ 666 µM); in [2], 100 µg/mL (≈ 666 µM); in assay [3], 100 µg/mL (≈ 666 µM); in [13], 125 µg/mL (≈ 832 µM). Also, the MIC in assay [15] amounted to 62.5 µg/mL (≈ 416 µM); in [16], 250 µg/mL (≈ 1660 µM); in assay [19], 125 µg/mL (≈ 832 µM); in assay [20], 62.5 µg/mL (≈ 416 µM).
In the case of `COc1c(C(C)C)ccc(C)c1Br`, the result in assay [7], in assay [8], in assay [9], in assay [10], in assay [11] and in assay [1] was inactive. Also, the result in assay [2], in assay [3], in [12], in assay [13], in assay [14] and in assay [4] was inactive. Besides, the result in assay [15], in assay [5], in [16], in assay [17], in assay [18] and in assay [19] was inactive. Besides, the outcome in assay [6] and in assay [20] was inactive.
Take `Cc1ccc(C(C)C)c(O)c1Br`: the “inhibition zone (IZ)” value is recorded as 3 mm in assay [11] and 2 mm in assay [18]. For the same compound, the result in assay [1], in assay [2], in assay [3], in [4], in assay [5] and in [6] was inactive. In addition, the MIC in [13] turned out to be 100 µg/mL (≈ 436 µM); in [20], 125 µg/mL (≈ 546 µM).
`Cc1c(Cl)cc(C(C)C)c(O)c1Cl`: the outcome in assay [7], in assay [8], in assay [9], in [10], in assay [11] and in [1] was inactive. In addition, the result in assay [2], in assay [3], in assay [12], in assay [13], in assay [14] and in assay [4] was inactive. The result in assay [15], in assay [5], in [16], in assay [17], in assay [18] and in [19] was inactive. Moreover, the result in [6] and in assay [20] was inactive.
For the compound `CN[C@@H]1[C@H](O[C@H]2[C@H](O[C@H]3[C@H](O)[C@@H](O)[C@H](N=C(N)N)[C@@H](O)[C@@H]3N=C(N)N)O[C@@H](C)[C@]2(O)C=O)O[C@@H](CO)[C@H](O)[C@H]1O` [STREPTOMYCIN], the “inhibition zone (IZ)” value in assay [7] is 9 mm; in [8], 9 mm; in [11] it was 13 mm; in [12], 9 mm; in [14], 10 mm; in assay [17], 9 mm. The “inhibition zone (IZ)” value in assay [18] is on record as 10 mm. For the same compound, the MIC in assay [9] was determined as 6.35 µg/mL (≈ 10.9 µM); in assay [10], 1.35 µg/mL (≈ 2.32 µM); in assay [13], 2.71 µg/mL (≈ 4.66 µM); in [15], 0.36 µg/mL (≈ 0.619 µM); in assay [16], 2.71 µg/mL (≈ 4.66 µM); in [19], 12.5 µg/mL (≈ 21.5 µM). For the same compound, the lowest concentration to inhibit growth in [20] (MIC) was 6.35 µg/mL (≈ 10.9 µM).
On to `Cc1c(Br)cc(C(C)C)c(O)c1Br`, for which the figures for the “inhibition zone (IZ)” value in assay [8] and in assay [12] were 13 mm and 16 mm, respectively. Besides, the minimal inhibitory concentration (MIC) turned out to be 1000 µg/mL (≈ 3250 µM) in [9] and 250 µg/mL (≈ 812 µM) in assay [19]. Further, the result in assay [1], in [2], in assay [3], in assay [4], in assay [5] and in assay [6] was inactive.
Turning to `Cc1c(Cl)cc(C(C)C)c(O)c1Br`, the result in assay [7], in [8], in assay [9], in [10], in [11] and in [1] was inactive. Besides, the outcome in assay [2], in assay [3], in assay [12], in assay [13], in assay [14] and in assay [4] was inactive. In addition, the outcome in assay [15], in [5], in assay [16], in assay [17], in assay [18] and in [19] was inactive. Further, the result in assay [6] and in [20] was inactive.
